{
  "source": "patent US20180256914A1",
  "about": "“COMPOSITIONS AND METHODS FOR THE TREATMENT OF MUCOSITIS ASSOCIATED WITH TREATMENT-INDUCED NEUTROPENIA” (KLOX TECHNOLOGIES INC., priority 2015, published 2018)",
  "key": {"[1]": {"tested_on": "P. aeruginosa", "format": "cell-based, Pseudomonas aeruginosa", "conditions": "Trolox at concentrations above 2 mM; data not shown"}, "[2]": {"assay": "Neutralisation by Trolox of ROS produced by gel containing 12% urea peroxide", "conditions": "2 mM Trolox; FIG. 2"}},
  "data": [
    {"smiles": "Cc1c(C)c2c(c(C)c1O)CCC(C)(C(=O)O)O2", "note": "(centres unmarked) [Trolox]", "values": [
      {"measurement": "cytotoxicity to P. aeruginosa", "setting": "[1]", "result": "not to be cytotoxic"},
      {"measurement": "neutralization of ROS produced by the gel containing 12% urea peroxide", "setting": "[2]", "result": "neutralize the ROS"}
    ]}
  ]
}
